{
  "source": "patent US20130336899A1",
  "about": "“ANTIMICROBIAL FORMULATIONS THAT AID IN WOUND HEALING” (Purdue Research Foundation, priority 2010, published 2013)",
  "assay_type_in_all_cases": "cell-based",
  "key": {"bacteria [1]": {"test_system": "bacteria", "experiment": "Cell viability with vital stain (propidium iodide, PI)", "conditions": "thymol 2.66 mM, sucrose 1.17 OsM; after 1 hr", "description": "FIG. 3A. Photomicrographs of cells that were: untreated; or treated with sucrose, or thymol or sucrose and thymol (S+T)."}, "bacteria [2]": {"test_system": "bacteria", "experiment": "Bactericidal action of hypertonic sucrose with or without membrane permeabilizing agent"}, "bacteria [3]": {"test_system": "bacteria", "experiment": "Bactericidal log reduction after 10 and 60 min treatment", "conditions": "for Log Red - 10 min: 10 min treatment; for Log Red - 60 min: 60 min treatment", "procedure": "Referring now to FIG. 4, the bactericidal effect of osmopermeation is fast acting and occurs in less than 10 minutes, as shown. Finally, osmopermeation is wide spectrum in nature and effective in treating both Gram (+) and Gram (−) bacterial strains."}, "bacteria [4]": {"test_system": "bacteria", "experiment": "Measurement of 260/280 nm absorbing material (bacteriolysis, loss of intracellular proteins)", "conditions": "sucrose 1.17 OsM, thymol 2.66 mM"}, "MRSA": {"test_system": "MRSA", "experiment": "Dose response, MIC and combination index, 24 hrs of treatment", "conditions": "thymol emulsion", "description": "(§1) Responses represent 24 hrs of treatment. Six specific combinations (S+T) of sucrose and thymol are also plotted for each strain. The effect level (Fa) represents a value between 0 and 1.0 with 0 being no effect and 1.0 being all cells affected. (B) Normalized isobolograms defining the interaction between S and T. Numbered points correspond to the specific combinations enumerated in the table. Table denotes the minimum inhibitory concentrations (MICs) for each treatment as well as outcomes of the six S+T combinations. The nature of the two-treatment interaction is measured via the combination index (CI). The CI<1 is roughly defined as synergistic, ˜1 is additive and CI>1 is antagonistic. See Chou T C. “Theoretical basis, experimental design and computerized simulation of synergism and antagonism in drug combination studies”. Pharmacol. Rev. 2006; […]:621-81. Synergistic interactions were found in combinations with various hyperosmotic pressures and concentrations of the membrane permeabilizing agent.\n(§2) Data collected with 4 strains of bacterial E. coli, E, faecalis, S. aureus and MRSA."}, "E. faecalis": {"test_system": "E. faecalis", "experiment": "Dose response, MIC and combination index, 24 hrs of treatment", "conditions": "thymol emulsion", "description": "as §1, §2"}, "S. aureus": {"test_system": "S. aureus", "experiment": "Dose response, MIC and combination index, 24 hrs of treatment", "conditions": "thymol emulsion", "description": "as §1, §2"}, "E. coli": {"test_system": "E. coli", "experiment": "Dose response, MIC and combination index, 24 hrs of treatment", "conditions": "thymol emulsion", "description": "as §1, §2"}},
  "data": [
    {"smiles": "OC[C@H]1O[C@@](CO)(O[C@H]2O[C@H](CO)[C@@H](O)[C@H](O)[C@H]2O)[C@@H](O)[C@@H]1O", "note": "[Sucrose (S), sucrose]", "values": [
      {"measurement": "effect on cell viability (PI vital stain)", "setting": "bacteria [1]", "value": "little effect on cell viability"},
      {"measurement": "bactericidal effect", "setting": "bacteria [2]", "value": "no bactericidal effect and actually permits cell proliferation"},
      {"measurement": "Log Red - 10 min", "setting": "bacteria [3]", "value": "<0.5"},
      {"measurement": "Log Red - 60 min", "setting": "bacteria [3]", "value": "<0.2"}
    ]},
    {"smiles": "Cc1ccc(C(C)C)c(O)c1", "note": "[Thymol (T), 2-isopropyl-5-methylphenol]", "values": [
      {"measurement": "effect on cell viability (PI vital stain)", "setting": "bacteria [1]", "value": "little effect on cell viability"},
      {"measurement": "bactericidal effect", "setting": "bacteria [2]", "value": "no significant bactericidal effect"},
      {"measurement": "280 nm (A.U.)", "setting": "bacteria [4]; absorbing material released", "value": 1.02, "unit": "A.U."},
      {"measurement": "absorbance at 260 nm", "setting": "bacteria [4]; absorbing material released", "value": ".99 A.U."},
      {"measurement": "260/280 nm", "setting": "bacteria [4]; ratio of absorbances", "value": 0.97},
      {"measurement": "MICT", "setting": "MRSA", "value": 1.65, "unit": "mM"},
      {"measurement": "MICT", "setting": "E. faecalis", "value": 2.60, "unit": "mM"},
      {"measurement": "MICT", "setting": "S. aureus", "value": 1.65, "unit": "mM"},
      {"measurement": "MICT", "setting": "E. coli", "value": 2.60, "unit": "mM"},
      {"measurement": "Log Red - 10 min", "setting": "bacteria [3]", "value": "~6.4"},
      {"measurement": "Log Red - 60 min", "setting": "bacteria [3]", "value": "~6.7"}
    ]}
  ]
}
